From PMC4096218 (Journal of Medicinal Chemistry, 2014)
In brackets after ≈: the same amount, converted by molar mass.

What was measured:
EcUPPS = biological target: T1, EcUPPS (Escherichia coli, UniProt P60472); conditions: inhibitor in EcUPPS X-ray structure 2E98; cited from earlier work
T1 sequence (P60472 1-253): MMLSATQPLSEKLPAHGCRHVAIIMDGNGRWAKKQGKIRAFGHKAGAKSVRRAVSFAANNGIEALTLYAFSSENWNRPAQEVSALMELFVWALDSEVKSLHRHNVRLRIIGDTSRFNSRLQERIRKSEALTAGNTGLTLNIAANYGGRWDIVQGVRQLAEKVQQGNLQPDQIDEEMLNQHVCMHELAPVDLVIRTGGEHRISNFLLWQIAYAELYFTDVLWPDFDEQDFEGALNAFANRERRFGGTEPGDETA

[1] = test system: Bacillus anthracis strain Sterne; test: microbe, parasite or virus in culture; format: cell-based
[2] = test system: panel of both Gram-positive and Gram-negative bacteria; format: cell-based; conditions: for MIC values (range in words): B. anthracis Sterne, MRSA, VRE, L. monocytogenes

Row | SMILES | IC50 (EcUPPS) [nM] | MIC [1] [µg/mL] | MIC values (range in words) [2] | growth of Gram negatives [2] | growth of Gram positives [2]
1 | O=P(O)(O)C(O)(Cc1cccc(-c2cccc3c2oc2ccccc23)c1)P(=O)(O)O [BPH-629] | ~300 | – | – | – | –
2 | Cc1cc(Cl)ccc1-c1ccc(/C=C2\SC(=S)N(CC(=O)O)C2=O)o1 [Compound 1] | – | 1 to 2 (≈ 2.54 to 5.08 µM) | high ng/mL to low μg/mL range | did not inhibit the growth of Gram negatives | inhibited the growth of Gram positives
3 | O=C(O)CCN1C(=O)/C(=C/c2ccc(-c3ccc(Cl)cc3Cl)o2)SC1=S [Compound 4] | – | – | high ng/mL to low μg/mL range | did not inhibit the growth of Gram negatives | inhibited the growth of Gram positives
